Reference: patent publication US9079901B2, “Fused heterocyclic compounds as ion channel modulators” (Gilead Sciences, Inc., priority 2010, dated 2015)

Biological target: wild-type human cardiac sodium channel, hNav1.5 (late sodium current) in HEK293 cells (Homo sapiens, UniProt Q14524)
Assay: Late INa screening assay (automated whole-cell patch clamp, PatchXpress)
Format: cell-based
Details: HEK293, compound at 1 μM; late INa generated with 10 μM Tefluthrin (or 50 nM ATX II); HEK293 hNav1.5; read-out: Late INa 1 μM (percent block of late INa)
Method: The late sodium current (Late INa) and peak sodium current (Peak INa) assays are performed on an automated electrophysiology platform, PatchXpress 7000A (MDS Analytical Technologies, Sunnyvale, Calif.), which uses the whole cell patch clamp technique to measure currents through the cell membrane of up to 16 cells at a time. The assay uses an HEK293 (human embryonic kidney) cell line heterologously expressing the wild-type human cardiac sodium channel, hNav1.5, purchased from Millipore (Billerica, Mass.). No beta subunits were coexpressed with the Na channel alpha subunit. Cells are maintained with standard tissue culture procedures and stable channel expression is maintained with 400 μg/ml Geneticin in the culture medium. Cells isolated for use on PatchXpress are incubated for 5 minutes in Versene 1× and then for 2 minutes in 0.0125% Trypsin-EDTA (both at 37° C.) to ensure that 80-90% of the cells are single and not part of a cell cluster. Experiments are carried out at 24-27° C.
For both the Late INa and Peak INa assays, series resistance compensation is set to 50% and whole-cell compensation is performed automatically. Currents are low-pass filtered at 10 kHz and digitized at 31.25 kHz. Currents through open sodium channels are automatically recorded and stored in the DataXpress2 database (MDS Analytical Technologies, Sunnyvale, Calif.). Analysis is performed using DataXpress2 analysis software and data are compiled in Excel.
Compound stocks are routinely made in glass vials to 10 mM in dimethyl sulfoxide (DMSO). In some cases, when compounds are not soluble in DMSO, they are made in 100% ethanol. Stocks are sonicated as necessary. The extracellular solution for screening Late INa is composed of: 140 mM NaCl, 4 mM KCl, 1.8 mM CaCl2, 0.75 mM MgCl2, and 5 mM HEPES with pH adjusted to 7.4 using NaOH. The extracellular solution for screening Peak INa is composed of: 20 mM NaCl, 120 mM N-methyl-D glucamine, 4 mM KCl, 1.8 mM CaCl2, 0.75 mM MgCl2, and 5 mM HEPES with pH adjusted to 7.4 using HCl. The intracellular solution used to perfuse the inside of the cells for both the Late INa and Peak INa assays contains: 120 mM CsF, 20 mM CsCl, 5 mM EGTA, 5 mM HEPES and pH adjusted to 7.4 with CsOH. Compounds are diluted in extracellular solution to 10 μM in glass vials and then transferred to glass well plates before robotic addition to the cells. The 0Na extracellular solution used at the end of each experiment for the Late INa and Peak INa assays to measure baseline current contains: 140 mM N-methyl-D-glucamine; 4 mM KCl; 1.8 mM CaCl2; 0.75 mM MgCl2; 5 mM HEPES and pH was adjusted to 7.4 with HCl.
For the Late INa assay, sodium channels are activated every 10 seconds (0.1 Hz) by depolarizing the cell membrane to −20 mV for 250 milliseconds (ms) from a holding potential of −120 mV. In response to a −20 mV voltage step, typical Nav1.5 sodium currents activate rapidly to a peak negative current and then inactivate nearly completely within 3-4 ms.
All compounds are tested to determine their activity in blocking the late sodium current. Late INa current is generated by adding 10 μM Tefluthrin (pyrethroid) to the extracellular solution while recording Na currents. For some experiments, 50 nM ATX II (sea anemone toxin), another late INa activator, was used to generate the late component. Both activators generate late components that are large enough that block of the late component by compounds can be measured easily. For the purposes of the screening, late INa is defined as the mean current between 225 ms and 250 ms after stepping to −20 mV to activate Na channels. After establishing the whole cell recording configuration, late INa activators are added to each well 4 times over a 16-17 minute period so that the late component of the Na current reaches a stable value. Compounds are then added (typically at 10 μM), in the presence of late INa activator, with 3 additions over the course of 7 or 8 minutes. […]

wild-type human cardiac sodium channel, hNav1.5 (late sodium current) in HEK293 cells, sequence (Q14524 whole entry): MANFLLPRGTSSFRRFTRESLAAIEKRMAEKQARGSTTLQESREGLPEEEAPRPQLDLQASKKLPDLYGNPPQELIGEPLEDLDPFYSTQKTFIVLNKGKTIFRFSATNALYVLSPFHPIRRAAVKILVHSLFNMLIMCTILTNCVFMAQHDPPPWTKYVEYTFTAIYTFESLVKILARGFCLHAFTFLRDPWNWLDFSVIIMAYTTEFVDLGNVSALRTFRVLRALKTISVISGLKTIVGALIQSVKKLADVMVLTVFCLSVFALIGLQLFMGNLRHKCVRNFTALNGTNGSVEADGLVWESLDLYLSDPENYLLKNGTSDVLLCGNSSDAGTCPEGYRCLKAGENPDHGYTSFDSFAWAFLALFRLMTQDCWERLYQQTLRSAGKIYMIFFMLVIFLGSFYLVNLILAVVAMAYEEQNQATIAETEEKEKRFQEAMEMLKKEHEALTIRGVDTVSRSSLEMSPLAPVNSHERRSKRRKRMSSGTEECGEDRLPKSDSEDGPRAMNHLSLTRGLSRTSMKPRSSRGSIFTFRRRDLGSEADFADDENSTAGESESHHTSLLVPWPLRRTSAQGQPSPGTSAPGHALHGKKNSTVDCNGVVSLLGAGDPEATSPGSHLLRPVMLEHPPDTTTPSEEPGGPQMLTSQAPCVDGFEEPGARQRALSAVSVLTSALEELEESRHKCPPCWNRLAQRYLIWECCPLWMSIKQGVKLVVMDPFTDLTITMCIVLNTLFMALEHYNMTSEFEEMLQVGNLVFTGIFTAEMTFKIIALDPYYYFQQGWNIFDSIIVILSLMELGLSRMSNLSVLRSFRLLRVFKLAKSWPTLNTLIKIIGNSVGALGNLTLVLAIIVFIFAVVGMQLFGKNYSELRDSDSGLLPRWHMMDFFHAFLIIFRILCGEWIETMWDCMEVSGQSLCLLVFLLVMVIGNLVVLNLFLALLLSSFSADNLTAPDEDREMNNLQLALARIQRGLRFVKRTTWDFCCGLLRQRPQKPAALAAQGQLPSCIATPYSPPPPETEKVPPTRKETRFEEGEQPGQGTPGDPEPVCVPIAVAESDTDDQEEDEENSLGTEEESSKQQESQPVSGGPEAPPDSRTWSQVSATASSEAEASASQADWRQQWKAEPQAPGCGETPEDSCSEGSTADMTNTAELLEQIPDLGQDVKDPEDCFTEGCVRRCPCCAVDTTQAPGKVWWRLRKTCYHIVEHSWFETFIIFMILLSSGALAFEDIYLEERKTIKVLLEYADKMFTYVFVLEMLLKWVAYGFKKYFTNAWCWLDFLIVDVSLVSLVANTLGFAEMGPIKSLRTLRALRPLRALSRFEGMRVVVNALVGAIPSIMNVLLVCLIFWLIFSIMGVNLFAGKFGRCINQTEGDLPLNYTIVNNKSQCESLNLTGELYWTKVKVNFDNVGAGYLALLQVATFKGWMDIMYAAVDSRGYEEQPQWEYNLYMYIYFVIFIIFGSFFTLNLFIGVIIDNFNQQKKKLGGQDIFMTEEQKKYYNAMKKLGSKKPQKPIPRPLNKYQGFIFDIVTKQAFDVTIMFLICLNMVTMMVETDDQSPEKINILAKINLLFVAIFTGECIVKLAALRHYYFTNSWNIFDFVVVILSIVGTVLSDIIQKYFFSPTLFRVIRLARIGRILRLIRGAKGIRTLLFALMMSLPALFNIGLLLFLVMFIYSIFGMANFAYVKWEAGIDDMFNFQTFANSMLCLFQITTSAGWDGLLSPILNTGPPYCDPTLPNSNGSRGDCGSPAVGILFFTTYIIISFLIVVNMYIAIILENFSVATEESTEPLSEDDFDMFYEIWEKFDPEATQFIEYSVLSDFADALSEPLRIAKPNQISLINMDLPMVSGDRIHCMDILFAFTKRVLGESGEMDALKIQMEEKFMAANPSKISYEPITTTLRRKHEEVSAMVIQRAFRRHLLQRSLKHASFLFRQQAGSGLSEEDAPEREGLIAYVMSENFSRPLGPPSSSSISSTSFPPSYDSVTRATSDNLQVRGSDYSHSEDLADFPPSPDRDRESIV

With `O=c1n(CCOc2nccc(-c3ccccc3)n2)nc2ccc(-c3ccc(OC(F)(F)F)cc3)cn12` [compound 115, 2-(2-(4-phenylpyrimidin-2-yloxy)ethyl)-6-(4-(trifluoromethoxy)phenyl)-[1,2,4]triazolo[4,3-a]pyridin-3(2H)-one] the inhibition at 1 µM was 22.9%.

`CC(C)Oc1ccnc(OCCn2nc3ccc(-c4ccc(OC(F)(F)F)cc4)cn3c2=O)n1` [compound 177, 2-(2-(4-isopropoxypyrimidin-2-yloxy)ethyl)-6-(4-(trifluoromethoxy)phenyl)-[1,2,4]triazolo[4,3-a]pyridin-3(2H)-one] gave an inhibition at 1 µM of 25.8%.

For `Cc1nc(Cn2nc3ccc(-c4cccc(Oc5ccccc5)c4)cn3c2=O)no1` [compound 31, 2-((5-methyl-1,2,4-oxadiazol-3-yl)methyl)-6-(3-phenoxyphenyl)-[1,2,4]triazolo[4,3-a]pyridin-3(2H)-one], the inhibition at 1 µM was 24.4%.

`CCOC(COc1ccc2nc(C)sc2c1)Cn1nc2ccc(-c3ccc(OC(F)(F)F)cc3)cn2c1=O` (stereo not drawn) [compound 124, 2-(2-ethoxy-3-(2-methylbenzo[d]thiazol-6-yloxy)propyl)-6-(4-(trifluoromethoxy)phenyl)-[1,2,4]triazolo[4,3-a]pyridin-3(2H)-one] gave an inhibition at 1 µM of 31.2%.

`Cn1nc(C2CC2)cc1Cn1nc2ccc(-c3ccc(OC(F)(F)F)cc3)cn2c1=O` [compound 26, 2-((3-cyclopropyl-1-methyl-1H-pyrazol-5-yl)methyl)-6-(4-(trifluoromethoxy)phenyl)-[1,2,4]triazolo[4,3-a]pyridin-3(2H)-one] showed an inhibition at 1 µM of 19.3%.

With `O=c1n(CCc2ccc(F)cc2F)nc2ccc(-c3ccc(OC(F)(F)F)cc3)cn12` [compound 78, 2-(2,4-difluorophenethyl)-6-(4-(trifluoromethoxy)phenyl)-[1,2,4]triazolo[4,3-a]pyridin-3(2H)-one] the inhibition at 1 µM was 36.7%.

With `O=C1c2ccccc2C(=O)N1Cc1nc(Cn2nc3ccc(-c4ccc(OC(F)(F)F)cc4)cn3c2=O)no1` [compound 136, 2-((3-((3-oxo-6-(4-(trifluoromethoxy)phenyl)-[1,2,4]triazolo[4,3-a]pyridin-2(3H)-yl)methyl)-1,2,4-oxadiazol-5-yl)methyl)isoindoline-1,3-dione] the inhibition at 1 µM was 25.2%.

In the case of `Cn1nc2ccc(-c3ccc(OC(F)(F)F)cc3)cn2c1=O` [compound 201, 2-methyl-6-(4-(trifluoromethoxy)phenyl)-[1,2,4]triazolo[4,3-a]pyridin-3(2H)-one], the inhibition at 1 µM is reported as 38.7%.

`O=c1n(CCc2ccc(F)cc2)nc2ccc(-c3ccc(OC(F)(F)F)cc3)cn12` [compound 59, 2-(4-fluorophenethyl)-6-(4-(trifluoromethoxy)phenyl)-[1,2,4]triazolo[4,3-a]pyridin-3(2H)-one] gave an inhibition at 1 µM of 27.1%.

`O=c1n(CC2CCc3ccccc3O2)nc2ccc(-c3ccc(OC(F)(F)F)cc3)cn12` (stereo not drawn) [compound 77, 2-(chroman-2-ylmethyl)-6-(4-(trifluoromethoxy)phenyl)-[1,2,4]triazolo[4,3-a]pyridin-3(2H)-one] gave an inhibition at 1 µM of 32.1%.

Work on `O=c1n(CCOc2nccc(C3CC3)n2)nc2ccc(-c3ccc(OC(F)(F)F)cc3)cn12` [compound 90, 2-(2-(4-cyclopropylpyrimidin-2-yloxy)ethyl)-6-(4-(trifluoromethoxy)phenyl)-[1,2,4]triazolo[4,3-a]pyridin-3(2H)-one] yielded an inhibition at 1 µM of 36.3%.

Compound `O=c1n(C/C=C/c2ccccc2)nc2ccc(-c3ccc(OC(F)(F)F)cc3)cn12` [compound 151, 2-cinnamyl-6-(4-(trifluoromethoxy)phenyl)-[1,2,4]triazolo[4,3-a]pyridin-3(2H)-one] has an inhibition at 1 µM of 16.5%.

Work on `O=c1n(CC#Cc2cnccc2Cl)nc2ccc(-c3ccc(OC(F)(F)F)cc3)cn12` [compound 68, 2-(3-(4-chloropyridin-3-yl)prop-2-ynyl)-6-(4-(trifluoromethoxy)phenyl)-[1,2,4]triazolo[4,3-a]pyridin-3(2H)-one] yielded an inhibition at 1 µM of 11.1%.

`O=c1n(CCOc2ncccc2C(F)(F)F)nc2ccc(-c3ccc(OC(F)(F)F)cc3)cn12` [compound 47, 6-(4-(trifluoromethoxy)phenyl)-2-(2-(3-(trifluoromethyl)pyridin-2-yloxy)ethyl)-[1,2,4]triazolo[4,3-a]pyridin-3(2H)-one] showed an inhibition at 1 µM of 43.6%.

Work on `O=c1n(Cc2noc(CCl)n2)nc2ccc(-c3ccc(OC(F)(F)F)cc3)cn12` [compound 157, 2-((5-(chloromethyl)-1,2,4-oxadiazol-3-yl)methyl)-6-(4-(trifluoromethoxy)phenyl)-[1,2,4]triazolo[4,3-a]pyridin-3(2H)-one] yielded an inhibition at 1 µM of 22.7%.

Work on `COc1cnc(OCCn2nc3ccc(-c4ccc(OC(F)(F)F)cc4)cn3c2=O)nc1` [compound 116, 2-(2-(5-methoxypyrimidin-2-yloxy)ethyl)-6-(4-(trifluoromethoxy)phenyl)-[1,2,4]triazolo[4,3-a]pyridin-3(2H)-one] yielded an inhibition at 1 µM of 31.3%.

Compound `O=c1n(CCn2cc(Cl)cn2)nc2ccc(-c3ccc(OC(F)(F)F)cc3)cn12` [compound 41, 2-(2-(4-chloro-1H-pyrazol-1-yl)ethyl)-6-(4-(trifluoromethoxy)phenyl)-[1,2,4]triazolo[4,3-a]pyridin-3(2H)-one] has an inhibition at 1 µM of 12.2%.

`CC(=O)OCc1nc(Cn2nc3ccc(-c4ccc(OC(F)(F)F)cc4)cn3c2=O)no1` [compound 94, (3-((3-oxo-6-(4-(trifluoromethoxy)phenyl)-[1,2,4]triazolo[4,3-a]pyridin-2(3H)-yl)methyl)-1,2,4-oxadiazol-5-yl)methyl acetate] was tested, and the inhibition at 1 µM was 28.2%.

In the case of `Cc1noc(Cn2nc3ccc(-c4ccc(Oc5ccc(Cl)cc5)cc4)cn3c2=O)n1` [compound 53, 6-(4-(4-chlorophenoxy)phenyl)-2-((3-methyl-1,2,4-oxadiazol-5-yl)methyl)-[1,2,4]triazolo[4,3-a]pyridin-3(2H)-one], the inhibition at 1 µM is reported as 55.9%.

With `COc1ccccc1OCC(O)Cn1nc2ccc(-c3ccc(OC(F)(F)F)cc3)cn2c1=O` (stereo not drawn) [compound 4, 2-(2-hydroxy-3-(2-methoxyphenoxy)propyl)-6-(4-(trifluoromethoxy)phenyl)-[1,2,4]triazolo[4,3-a]pyridin-3(2H)-one] the inhibition at 1 µM was 20.8%.

With `O=c1n(CCOc2cccnn2)nc2ccc(-c3ccc(OC(F)(F)F)cc3)cn12` [compound 81, 2-(2-(pyridazin-3-yloxy)ethyl)-6-(4-(trifluoromethoxy)phenyl)-[1,2,4]triazolo[4,3-a]pyridin-3(2H)-one] the inhibition at 1 µM was 11%.

`CCOc1ccccc1OCC(O)Cn1nc2ccc(-c3ccc(OC(F)(F)F)cc3)cn2c1=O` (stereo not drawn) [compound 99, 2-(3-(2-ethoxyphenoxy)-2-hydroxypropyl)-6-(4-(trifluoromethoxy)phenyl)-[1,2,4]triazolo[4,3-a]pyridin-3(2H)-one] showed an inhibition at 1 µM of 36.5%.

Work on `O=c1n(CCCOc2ccccc2)nc2ccc(-c3ccc(OC(F)(F)F)cc3)cn12` [compound 24, 2-(3-phenoxypropyl)-6-(4-(trifluoromethoxy)phenyl)-[1,2,4]triazolo[4,3-a]pyridin-3(2H)-one] yielded an inhibition at 1 µM of 25%.

In the case of `O=c1n(Cc2nonc2-c2ccccc2)nc2ccc(-c3ccc(OC(F)(F)F)cc3)cn12` [compound 17, 2-((4-phenyl-1,2,5-oxadiazol-3-yl)methyl)-6-(4-(trifluoromethoxy)phenyl)-[1,2,4]triazolo[4,3-a]pyridin-3(2H)-one], the inhibition at 1 µM is reported as 18.4%.
